According to patent publication US20240277713A1 (Kadmon Corporation, LLC, priority 2022, published 2024):
Marks after values point to notes of the source that are not given here.

What was measured:
[1] = tested on: New Zealand White rabbits; assay: Pilot prenatal developmental toxicity study in New Zealand White rabbits with non-pregnant dose range finding phase (Example 2)
Description: The study was conducted in two phases: Phase A was a dose range finding tolerance study with non-pregnant rabbits, and Phase B was the pilot developmental toxicity study.
All fetuses were given the appropriate external examination.

[2] = tested on: Sprague-Dawley rats; assay: Embryo-fetal developmental toxicity study in Sprague-Dawley rats (Example 3); conditions: for Discharge, Brown, Vulva, times observed/animals / Discharge, Red, Vulva, times observed/animals / Ear/portion of ear missing, Ear/left, times observed/animals / Hair sparse, Abdominal region, times observed/animals / Hair sparse, Cervical region, times observed/animals / Hair sparse, Forefoot/left, times observed/animals / Hair sparse, Forefoot/right, times observed/animals / Hair sparse, Forelimb/left, times observed/animals / Hair sparse, Forelimb/right, times observed/animals / Hair sparse, Hind limb/left, times observed/animals / Hair sparse, Hind limb/right, times observed/animals / Hair sparse, Lumbar region, times observed/animals / Hair sparse, Thoracic region, times observed/animals / Scabbed area, Face, times observed/animals / Scabbed area, Forelimb/right, times observed/animals / Scabbed area, Tail, times observed/animals / Scabbed area, Thoracic region, times observed/animals / Tail missing - portion, times observed/animals: GD 6-20
Description: For this study, a total of 140 time-mated female rats (approximately 8 to 10 weeks of age) were obtained from Charles River Laboratories, Raleigh, North Carolina, and acclimated from the time of arrival until the time of dosing on GD 6. During the acclimation period, the animals were observed twice daily with respect to general health and any signs of disease. All animals were given a detailed clinical examination and body weights were recorded prior to selection. […] Food consumption was collected during the acclimation period.
Animals received in-life and postmorten evaluations. […] All fetuses were given an external and visceral or skeletal examination.
Detailed clinical observations were made daily from GD 6 through 20 (4 hours±1 hour postdose on dosing days).
Food consumption for main study animals was measured and recorded on the corresponding body weight days and calculated for the same intervals.
The placentae were examined grossly.
The foci, if detected, were considered early resorptions, and data from this female were included in mean calculations

## CC(C)NC(=O)COc1cccc(-c2nc(Nc3ccc4[nH]ncc4c3)c3ccccc3n2)c1 [belumosudil, 2-{3-[4-(1H-indazol-5-ylamino)-2-quinazolinyl]phenoxy}-N-(propan-2-yl) acetamide]
[1]; 25 or 50 mg base/kg/day, GD 6-18
  maternal toxicity: no toxicologically relevant maternal toxicity was observed
[1]; 100 and 250 mg base/kg/day, dose-dependent
  maternal response: reduced body weight gain/loss, decreased food consumption, clinical signs
[1]; Phase A, 300 and 400 mg base/kg/day
  treatment-related effects: slight body weight losses and decreased food consumption
[1]; Phase B, any dose level (25-250 mg base/kg/day)
  embryo or fetal toxicity: no treatment-related embryo or fetal toxicity was apparent
[1]; pregnant rabbits
  NOAEL for developmental toxicity: 250 mg base/kg/day
  NOAEL for maternal toxicity: 50 mg base/kg/day
[1]; rabbit, in vivo
  survival: not affected
[2]; 15 mg base/kg/day
  Maternal Body Weight Change GD 6-9: 10.0 g
  Maternal Body Weight Change GD 6-18: 93.8 g
  Maternal Body Weight Change GD 6-20: 127.9 g
  Maternal Body Weight Change GD 18-20: 34.0 g
  Maternal Body Weight GD 9: 231.7 g
  Maternal Body Weight GD 12: 257.0 g
  Maternal Body Weight GD 15: 272.8 g
  Maternal Body Weight GD 18: 315.5 g
  Maternal Body Weight GD 20: 349.6 g
  Maternal Food Consumption GD 6-9: 19.0
  Maternal Food Consumption GD 6-18: 22.6
  Maternal Food Consumption GD 6-20: 23.2
  Maternal Food Consumption GD 18-20: 27.3
  Mean Fetal Body Weight Females: 4.00 g
  Mean Fetal Body Weight Genders Combined: 4.10 g
  Mean Fetal Body Weight Males: 4.19 g
  Discharge, Brown, Vulva, times observed/animals: 1/1
  Discharge, Red, Vulva, times observed/animals: 0/0
  Ear/portion of ear missing, Ear/left, times observed/animals: 13/1
  Hair sparse, Abdominal region, times observed/animals: 7/1
  Hair sparse, Cervical region, times observed/animals: 0/0
  Hair sparse, Forefoot/left, times observed/animals: 4/2
  Hair sparse, Forefoot/right, times observed/animals: 0/0
  Hair sparse, Forelimb/left, times observed/animals: 12/3
  Hair sparse, Forelimb/right, times observed/animals: 17/3
  Hair sparse, Hind limb/left, times observed/animals: 0/0
  Hair sparse, Hind limb/right, times observed/animals: 0/0
  Hair sparse, Lumbar region, times observed/animals: 0/0
  Hair sparse, Thoracic region, times observed/animals: 0/0
  Scabbed area, Face, times observed/animals: 7/1
  Scabbed area, Forelimb/right, times observed/animals: 4/1
  Scabbed area, Tail, times observed/animals: 0/0
  Scabbed area, Thoracic region, times observed/animals: 1/1
  Tail missing - portion, times observed/animals: 0/0
[2]; 15 mg base/kg/day (N = 25)
  Adjusted Final Body Weight, Mean: 278.5 g
  Adjusted Weight Change From Day 6, Mean: 56.8
  Final Body Weight, Mean: 349.6 g
  Gravid Uterine Weight, Mean: 71.0 g
[2]; 50 mg base/kg/day
  Maternal Body Weight Change GD 6-9: 6.2^b g
  Maternal Body Weight Change GD 6-18: 78.8^b g
  Maternal Body Weight Change GD 6-20: 115.9^b g
  Maternal Body Weight Change GD 18-20: 37.1 g
  Maternal Body Weight GD 9: 225.5^a g
  Maternal Body Weight GD 12: 246.3^b g
  Maternal Body Weight GD 15: 262.6^b g
  Maternal Body Weight GD 18: 298.1^b g
  Maternal Body Weight GD 20: 335.2^b g
  Maternal Food Consumption GD 6-9: 15.5^b
  Maternal Food Consumption GD 6-18: 20.0^b
  Maternal Food Consumption GD 6-20: 21.3^b
  Maternal Food Consumption GD 18-20: 29.0
  Mean Fetal Body Weight Females: 3.94 g
  Mean Fetal Body Weight Genders Combined: 4.06 g
  Mean Fetal Body Weight Males: 4.19 g
  Discharge, Brown, Vulva, times observed/animals: 1/1
  Discharge, Red, Vulva, times observed/animals: 4/4
  Ear/portion of ear missing, Ear/left, times observed/animals: 0/0
  Hair sparse, Abdominal region, times observed/animals: 0/0
  Hair sparse, Cervical region, times observed/animals: 8/1
  Hair sparse, Forefoot/left, times observed/animals: 0/0
  Hair sparse, Forefoot/right, times observed/animals: 0/0
  Hair sparse, Forelimb/left, times observed/animals: 10/2
  Hair sparse, Forelimb/right, times observed/animals: 10/2
  Hair sparse, Hind limb/left, times observed/animals: 0/0
  Hair sparse, Hind limb/right, times observed/animals: 0/0
  Hair sparse, Lumbar region, times observed/animals: 0/0
  Hair sparse, Thoracic region, times observed/animals: 7/1
  Scabbed area, Face, times observed/animals: 0/0
  Scabbed area, Forelimb/right, times observed/animals: 0/0
  Scabbed area, Tail, times observed/animals: 0/0
  Scabbed area, Thoracic region, times observed/animals: 0/0
  Tail missing - portion, times observed/animals: 0/0
[2]; 50 mg base/kg/day (N = 25)
  Adjusted Final Body Weight, Mean: 266.4^b g
  Adjusted Weight Change From Day 6, Mean: 47.1^b
  Final Body Weight, Mean: 335.2^b g
  Gravid Uterine Weight, Mean: 68.8 g
[2]; 150 mg base/kg/day
  Fetal Body Weight Females, % Difference From Control: −7.7%
  Fetal Body Weight Genders Combined, % Difference From Control: −7.3%
  Fetal Body Weight Males, % Difference From Control: −8.0%
  Maternal Body Weight Change GD 6-9: −4.2^b g
  Maternal Body Weight Change GD 6-18: 55.4^b g
  Maternal Body Weight Change GD 6-20: 97.1^b g
  Maternal Body Weight Change GD 18-20: 41.8^b g
  Maternal Body Weight GD 9: 215.8^b g
  Maternal Body Weight GD 12: 232.1^b g
  Maternal Body Weight GD 15: 244.0^b g
  Maternal Body Weight GD 18: 275.3^b g
  Maternal Body Weight GD 20: 317.0^b g
  Maternal Food Consumption GD 6-9: 10.0^b
  Maternal Food Consumption GD 6-18: 15.4^b
  Maternal Food Consumption GD 6-20: 17.4^b
  Maternal Food Consumption GD 18-20: 29.4
  Mean Fetal Body Weight Females: 3.72 g
  Mean Fetal Body Weight Genders Combined: 3.82 g
  Mean Fetal Body Weight Males: 3.91 g
  Discharge, Brown, Vulva, times observed/animals: 4/4
  Discharge, Red, Vulva, times observed/animals: 1/1
  Ear/portion of ear missing, Ear/left, times observed/animals: 15/1
  Hair sparse, Abdominal region, times observed/animals: 0/0
  Hair sparse, Cervical region, times observed/animals: 0/0
  Hair sparse, Forefoot/left, times observed/animals: 27/3
  Hair sparse, Forefoot/right, times observed/animals: 23/3
  Hair sparse, Forelimb/left, times observed/animals: 14/2
  Hair sparse, Forelimb/right, times observed/animals: 30/3
  Hair sparse, Hind limb/left, times observed/animals: 6/1
  Hair sparse, Hind limb/right, times observed/animals: 6/1
  Hair sparse, Lumbar region, times observed/animals: 12/1
  Hair sparse, Thoracic region, times observed/animals: 12/2
  Scabbed area, Face, times observed/animals: 0/0
  Scabbed area, Forelimb/right, times observed/animals: 0/0
  Scabbed area, Tail, times observed/animals: 13/2
  Scabbed area, Thoracic region, times observed/animals: 0/0
  Tail missing - portion, times observed/animals: 11/1
[2]; 150 mg base/kg/day (N = 20)
  Adjusted Final Body Weight, Mean: 252.7^b g
  Adjusted Weight Change From Day 6, Mean: 32.8^b
  Final Body Weight, Mean: 317.0^b g
  Gravid Uterine Weight, Mean: 64.3 g
[2]; pregnant rats
  NOAEL for fetal developmental toxicity: 50 mg base/kg/day
  NOAEL for maternal toxicity: 15 mg base/kg/day
[2]; rat, in vivo
  mortality: No treatment related mortality
